Measured values from patent publication US9585878B2, “Treatment of BDNF-related disorders using laquinimod” (TEVA PHARMACEUTICAL INDUSTRIES, LTD., priority 2009, dated 2017).
“Also recorded” adds a separate entry of the source.

Tests used:
Balb/c mice [1] = experiment: Open Field Test (motility and anxiety parameters); type: in vivo
Experimental: The Open Field Test—Exploratory locomotor activity used in Examples 3.1 and 3.2 described below is one of the most popular in evaluation of animals' behavior. It tests both motility parameters and anxiety (Prut et al). An individual mouse is placed in a novel plexiglass arena of 50×50 cm the floor of which is divided into 3 digital zones: the outer peripheral zone 1, the medial zone 2 and the most central zone 3. The animal behavior in the open field is recorded by videotaping for 20 min and is analyzed subsequently digitally using Noldus software for animal behavior. The measurements include general motility (distance moved, velocity and strong mobility) and anxiety parameters (including frequency of visits to the central area, time spent in the inner field, and number of rearing events in the center). The more the animal stays and performs in the center, the less anxious it is.
(§1) Balb/c male mice were divided to 6 groups (5/group) and administered laquinimod (1, 5, 10 and 25 mg/kg p.o. in the form of laquinimod sodium solution via gavage), fluoxetine (positive control 10 mg/kg po) or vehicle daily for 3 days. On the third day, 90 min following administration, mice were exposed to the open field for 20 min. Behavior was video recorded and analyzed using Ethovision software (Noldus Holland).
as §1, with “(0.5, 1, 5” for “(1, 5, 10”, “field test” for “field”, “minutes.” for “min.”

Balb/c mice [2] = experiment: Forced Swim Test (FST); type: in vivo
Balb/c mice [3] = experiment: Elevated Plus Maze (EPM); type: in vivo
Text: The EPM model used in Examples 4.1 and 4.2 described below utilizes the natural fear of rodents to avoid open and elevated places. The apparatus consists of a plus-maze with two enclosed and two opposite open arms, elevated above the floor. […] This is one of the most widely used models to study effects of anxiety-like behavior. The maze consisted of two opposing open arms (40×10 cm) and two opposing closed arms (40×10 cm, with 40 cm walls) on a platform 50 cm above the ground. Mice were placed in the center square (10×10 cm) facing an open arm and videotaped during a 5 min exploration. Arm entries and duration were scored when all four paws enter the arm. Balb/c male mice were divided to 6 groups (5/group) and administered laquinimod (0.5, 1, 5 and 25 mg/kg p.o. in the form of laquinimod sodium solution via gavage), fluoxetine (positive control 10 mg/kg po) or vehicle daily for 3 days. On the third day, 90 min following administration, mice were exposed to the EPM for 5 minutes. Mice were placed in the center square (10×10 cm) facing an open arm and videotaped during a 5 minute exploration. Arm entries and duration was scored when all four paws enter the arm. Behavior was video recorded and analyzed using Ethovision software (Noldus Holland). Balb/c male mice were divided to 6 groups (5/group) and administered laquinimod (0.5, 1, 5 and 25 mg/kg p.o. in the form of laquinimod sodium solution via gavage), fluoxetine (positive control 10 mg/kg po) or vehicle daily for 3 days. On the third day, 90 min following administration, mice were exposed to the EPM for 5 min. Behavior was video recorded and open arms parameters were analyzed using Ethovision software (Noldus Holland).

[4] = tested on: brain-derived neurotrophic factor (BDNF); experiment: Clinical trial in RRMS patients: BDNF concentration in serum by sandwich ELISA; type: in vivo, human; settings: for Mean BDNF concentration in serum: RRMS patients
Experimental: A study was initiated in relapsing remitting multiple sclerosis (RRMS) patients using laquinimod, 0.6 mg daily, in the form of the sodium salt, in an oral, once-daily tablet formulation. The study was a multinational, multicenter, randomized, double-blind, parallel-group, placebo controlled study assessing the efficacy, tolerability and safety of two doses of laquinimod in subjects with RRMS. Eligible subjects were randomized into the following three groups:
1. 0.6 mg of laquinimod per os (p.o.) once daily;
2. 0.3 mg of laquinimod per os (p.o.) once daily; and
3. Matching placebo, per os (p.o.) once daily. Subjects must meet the following inclusion criteria to be included in the study:
• 1. a confirmed MS diagnosis as defined by the McDonald criteria; • 2. a RRMS disease course; • 3. at least one documented relapse n the 12 months prior to screening; • 4. at least one Gadolinium-enhanced lesion on their screening MRI scan; • 5. ambulatory with a Kurtzke EDSS score of 1.0-5.0 (Converted); • 6. between 18-50 years of age inclusive; • 7. relapse-free and off corticosteroids or ACTH for at least 30 days prior to the MRI scan at screening; • 8. relapse-free and off corticosteroids between screening and randomization; • 9. women of child-bearing potential practiced a reliable method of birth control; • 10. willing and able to comply with the protocol requirements for the duration of the study; and • 11. able to give signed, written and informed consent prior to entering the study. Subjects meeting any one of the following exclusion criteria were excluded from the study: • 1. suffered from any form of progressive MS; • 2. use of immunosuppressive or cytotoxic treatments within 6 months prior to the screening visit (including azathioprine, cyclophosphamide and methotrexate); • 3. use of experimental drugs, and/or participation in drug clinical studies within the 6 months prior to screening; • 4. previous treatment with immunomodulators (including IFN-β1a and 1b, glatiramer acetate, laquinimod and IVIG) within the 2 months prior to screening; • 5. use of potent inhibitors of CYP3A4, for example, oral ketoconazole and erythromycin within 2 weeks prior to baseline visit; • 6. previous use of amiodarone; • 7. use of fluoxetine one month prior to baseline visit; • 8. use of substrates of CYP1A2 such as theophylline and warfarin within 2 weeks prior to screening; • 9. previous treatment with cladribine within the last 2 years prior to screening visit; • 10. subjects for whom potential immunosuppression would be contraindicated, for example, Hepatitis B/C or HIV. • 11. previous total body irradiation or total lymphoid irradiation; • 12. chronic corticosteroid treatment (30 or more consecutive days) within the 2 months prior to screening; • 13. pregnancy or breastfeeding; • 14. subjects with a clinically significant or unstable medical or surgical condition that would preclude safe and complete study participation as determined by medical history, physical exams, ECG, abnormal laboratory tests and chest X-ray. • 15. inability to give informed consent, or to complete the study, or if the subject is considered by the investigator to be, for any reason, an unsuitable candidate for the study; • 16. a known history of sensitivity to Gd; or • 17. inability to successfully undergo MRI scanning.
The study duration was 40 weeks and consisted of 2 periods: 4 weeks of screening period (week −4 [ screening] to week 0 [ baseline]) and 36 weeks of double blind treatment (week 0 [ baseline] to week 36 [ termination]).
Subjects were evaluated at study sites at weeks −4, 0, 4, 8, 12, 16, 20, 24, 28, 32 and 36. Samples for inflammatory markers were collected at all visits between 0 and 36 weeks.
BDNF concentration in serum was measured in patients in the placebo group (102 patients were in the group) and in the 0.6 mg laquinimod group (106 patients were in the group) at week 0 (V0), week 12 (v3) and week 36 (V9). […]

Structure (SMILES): CCN(C(=O)c1c(O)c2c(Cl)cccc2n(C)c1=O)c1ccccc1 [Laquinimod, N-ethyl-N-phenyl-1,2-dihydro-4-hydroxy-5-chloro-1-methyl-2-oxoquinoline-3-carboxamide]
- Most potent dose, anxiety parameters (zones 2 and 3) in open field (Balb/c mice [1]; Example 3.1): 1 mg/kg
- Motility parameters in open field (Balb/c mice [1]; Example 3.1, 1-25 mg/kg/d x3d p.o., 20 min): did not modify significantly the motility parameters; also recorded: did not modify general mobility parameters
- Anxiety parameters (zone 2) in open field (Balb/c mice [1]; Example 3.1, 1-25 mg/kg/d x3d p.o., frequency, time spent, distance moved, rearings): tendency toward anxiolytic effect
- Anxiety parameters (zone 2) in open field (Balb/c mice [1]; Example 3.1, 1-25 mg/kg/d x3d p.o., frequency, time spent, distance moved, rearings, listed as laquinimod): tended to perform more in the center
- Anxiety parameters (zones 2 and 3) in open field (Balb/c mice [1]; Example 3.1, 1-25 mg/kg/d x3d p.o., time spent, distance moved, rearings): tendency toward anxiolytic effect
- Anxiety parameters (zones 2 and 3) in open field (Balb/c mice [1]; Example 3.1, 1-25 mg/kg/d x3d p.o., time spent, distance moved, rearings, listed as laquinimod): tended to perform more in the center
- Most potent dose, anxiety parameters in open field (Balb/c mice [1]; Example 3.2): 5 mg/kg
- Motility parameters in open field (Balb/c mice [1]; Example 3.2, 0.5-5 mg/kg (0.5-25 mg/kg/d x3d p.o. tested)): slight increase in motility
- Anxiety parameters (zones 2+3) in open field (Balb/c mice [1]; Example 3.2, 0.5-5 mg/kg p.o. daily for 3 days, frequency, time spent, rearings): performed significantly more in the center; also recorded: significant anxiolytic effect
- Antidepressant activity (increased mobility, reduced immobility) in FST (Balb/c mice [2]; Example 2.1, 1 mg/kg p.o. daily for 3 days, 90 min after last dose): significant antidepressant activity
- Most active dose in FST (Balb/c mice [2]; Example 2.1, doses tested 1-25 mg/kg/d x3d p.o.): 1 mg/kg
- Antidepressant activity (increased mobility, reduced immobility) in FST (Balb/c mice [2]; Example 2.1, higher doses (25 mg/kg) p.o. daily for 3 days): trend to significance
- Antidepressant activity (increased mobility, reduced immobility) in FST (Balb/c mice [2]; Example 2.2, 5 and 25 mg/kg p.o. daily for 3 days): significant antidepressant activity
- Anxiolytic activity in EPM (Balb/c mice [3]; Example 4.1, 0.5, 1, 5 and 25 mg/kg p.o. daily for 3 days): anxiolytic activity in a dose dependent manner
- Anxiolytic effect in EPM (activity on the open arm) (Balb/c mice [3]; Example 4.1, 5 and 25 mg/kg/d x3d p.o., 5 min): significant anxiolytic effect
- Dose of maximal effect in EPM (Balb/c mice [3]; Example 4.1, p.o.): 25 mg/kg
- Anxiolytic activity in EPM (Balb/c mice [3]; Example 4.2, 0.5, 1, 5 and 25 mg/kg p.o. daily for 3 days): anxiolytic activity in a dose dependent manner
- Anxiolytic effect in EPM (open arm parameters) (Balb/c mice [3]; Example 4.2, 5-25 mg/kg/d x3d p.o., 5 min): significant anxiolytic effect
- Dose of maximal effect in EPM (Balb/c mice [3]; Example 4.2, p.o.): 5 to 25 mg/kg
- Difference in BDNF versus placebo group ([4]; 0.6 mg/day, V9 (week 36)): statistically significant
- Elevation of BDNF versus placebo group ([4]; 0.6 mg/day, starting from V3 (week 12), Confidence Level of 95%): statistically significant elevation of BDNF
- Mean BDNF concentration in serum ([4]; 0.6 mg laquinimod p.o. once daily group, baseline week 0 (V0)): 13892.7 pg/mL
- Mean BDNF concentration in serum ([4]; 0.6 mg laquinimod p.o. once daily, week 12 (V3)): 15519.6 pg/mL
- Mean BDNF concentration in serum ([4]; 0.6 mg laquinimod p.o. once daily, week 36 (V9)): 15335.8 pg/mL
- Difference in mean BDNF, Laquinimod 0.6 mg-Placebo (t Test, unequal variances) ([4]; baseline week 0 (V0)): -218.0 pg/mL
- Difference in mean BDNF, Laquinimod 0.6 mg-Placebo (t Test, unequal variances) ([4]; week 12 (V3)): 2445.70 pg/mL
- Difference in mean BDNF, Laquinimod 0.6 mg-Placebo (t Test, unequal variances) ([4]; week 36 (V9)): 2552.21 pg/mL

Structure (SMILES): CNCCC(Oc1ccc(C(F)(F)F)cc1)c1ccccc1 (stereo not drawn) [fluoxetine, reference compound]
- Anxiety parameters (zone 2) in open field (Balb/c mice [1]; Example 3.1, 10 mg/kg p.o. daily for 3 days): tended to perform more in the center
- Motility parameters in open field (Balb/c mice [1]; Example 3.1, 10 mg/kg p.o. daily for 3 days, 20 min): did not modify significantly the motility parameters
- Anxiety parameters (zones 2+3) in open field (Balb/c mice [1]; Example 3.2, 10 mg/kg p.o. daily for 3 days): significant anxiolytic effect
- Anxiety parameters (zones 2+3) in open field (Balb/c mice [1]; Example 3.2, 10 mg/kg p.o. daily for 3 days, listed as Fluoxetine): performed significantly more in the center
- Antidepressant activity in FST (Balb/c mice [2]; Example 2.1, positive control 10 mg/kg p.o. daily for 3 days): did not show significant effect
- Antidepressant activity in FST (Balb/c mice [2]; Example 2.2, positive control 10 mg/kg p.o. daily for 3 days): trend to the same activity
